The structures appear in SMILES notation. Where a name gives a salt, the structure may show the parent alone. Read-outs that look alike come from different tables or passages of the source.

Assay [1] is described as follows: Effect on energy expenditure of mice. It is filed as in vivo, Female CFLP mice. The following applies: Mus musculus; for response vs control in vivo at 22.1 mg/kg: 22.1 mg/kg po; for response vs control in vivo at 21 mg/kg: 21.0 mg/kg po. How it is done:
Female CFLP mice, each weighing approximately 24 g were given food and water ad lib before and during the experiment. The compounds were dissolved in water by addition of one mole of hydrochloric acid per mole of compound and these solutions were administered orally to each of 12 mice. A further 12 mice were dosed orally with water. The mice were placed in boxes through which air was drawn and the oxygen content of the air leaving the boxes was measured. The energy expenditure of the mice was calculated for 21 hours after dosing from the volume of air leaving the boxes and its oxygen content, following the principles described by J. B. de V. Weir, J. Physiol. (London), 109, 1-9 (1949).

For a further assay, the system named is blood glucose. Put plainly: Hypoglycaemic activity: reduction in area under blood glucose curve after glucose load. It is filed as in vivo, Female CFLP mice. The following applies: Mus musculus, read-out: % Reduction in area under Blood Glucose Curve. As for the experimental part:
Female CFLP mice, weighing approximately 25 g, were fasted for 24 hours prior to the study. The compounds under study were administered orally as an aqueous solution to each of 6 mice. 30 minutes later a blood sample (10 μl) was obtained from the tail for the analysis of blood glucose. Immediately after taking this blood sample, glucose (1 g/Kg body weight) was administered subcutaneously to each mouse. 6 mice were given water as a control. Blood samples were then obtained from each mouse at 30 minute intervals for 120 minutes.
Compounds that produced a significant (P<0.05) reduction of blood glucose, compared with control mice given water, at any time interval, were considered active. The area under the blood glucose curve over the 2 hour period after the administration of the glucose was calculated for each compound and compared with the value for control animals.

The mark [2] stands for this setting: 0-3 h, read-out: Mean Energy Expenditure (0-3 h).
The mark [3] stands for this setting: 0-21 h, read-out: Mean Energy Expenditure (0-21 h).
The mark [4] stands for this setting: 25 μmol/Kg oral, 2 h after glucose 1 g/Kg s.c., vs control.
Setting [5] is: po, 21 h, read-out: Mean Energy Expenditure (0-21 h).
The mark [6] stands for this setting: 2.5 μmol/Kg oral, 2 h after glucose 1 g/Kg s.c., vs control.
[7] abbreviates: 12.5 μmol/Kg oral, 2 h after glucose 1 g/Kg s.c., vs control.
Setting [8] is: po, 3 h, read-out: Mean Energy Expenditure (0-3 h).
[9] abbreviates: 25.1 mg/kg po, 0-3 h, read-out: Mean Energy Expenditure (0-3 h).

For the compound `CNC(=O)COc1ccc(CCC(C)NCC(OC)c2cccc(Cl)c2)cc1` (stereo not drawn) [Example 22, N-[3-(4-Methylaminocarbonylmethoxyphenyl)-1-methylpropyl]-2-methoxy-2-(3-chlorophenyl)ethanamine hydrochloride], the response vs control in vivo at 22.1 mg/kg in assay [1] (setting [2]) is 126%; in assay [1] (setting [3]), 107%. Besides, the inhibition in vivo at 25 µmol/kg with blood glucose (setting [4]) is 39%.
For the compound `COC(CNC(C)Cc1ccc(OCCN(C)C)cc1)c1cccc(Cl)c1` (stereo not drawn) [Example 23, N-[2-(4-(2-Dimethylaminoethoxy)phenyl)-1-methylethyl]-2-methoxy-2-(3-chlorophenyl)ethanamine dihydrochloride hemihydrate], the response vs control in vivo at 23.7 mg/kg in assay [1] (setting [5]) came out at 130%; in assay [1] (23.7 mg/kg po, 0-3 h, read-out: Mean Energy Expenditure (0-3 h)), 163%. For the same compound, the inhibition in vivo at 2.5 µmol/kg with blood glucose (setting [6]) is 35%.
Regarding `COC(CNC(C)Cc1ccc(OCCN)cc1)c1cccc(Cl)c1` (stereo not drawn) [Example 24, N-[2-(4-(2-Aminoethoxy)phenyl)-1-methylethyl]-2-methoxy-2-(3-chlorophenyl)ethanamine dihydrochloride hemihydrate], the response vs control in vivo at 22.3 mg/kg in assay [1] (setting [5]) amounted to 128%; in assay [1] (22.3 mg/kg po, 0-3 h, read-out: Mean Energy Expenditure (0-3 h)) it was 147%. Moreover, in the assay with blood glucose (setting [7]), the inhibition in vivo at 12.5 µmol/kg was 51%.
Regarding `CCCOC(CNC(C)Cc1ccc(OCC(=O)OC)cc1)c1cccc(Cl)c1` (stereo not drawn) [Example 25, N-[2-(4-Carbomethoxymethoxyphenyl)-1-methylethyl]-2-^n-propoxy-2-(3-chlorophenyl)ethanamine hydrochloride], the response vs control in vivo at 22.8 mg/kg in assay [1] (22.8 mg/kg po, 0-3 h, read-out: Mean Energy Expenditure (0-3 h)) is 137%; in assay [1] (22.8 mg/kg po, 0-21 h, read-out: Mean Energy Expenditure (0-21 h)), 105%. Further, in the assay on blood glucose (setting [7]), the inhibition in vivo at 12.5 µmol/kg is 53.5%.
Take `COC(=O)COc1ccc(CC(C)NCC(OC(C)C)c2cccc(Cl)c2)cc1` (stereo not drawn) [Example 26, N-[2-(4-Carbomethoxymethoxyphenyl)-1-methylethyl]-2-isopropoxy-2-(3-chlorophenyl)ethanamine hydrochloride]: the response vs control in vivo at 22.8 mg/kg in assay [1] (setting [8]) was determined as 122%; in assay [1] (setting [5]), 103%. Besides, the inhibition in vivo at 2.5 µmol/kg in the assay with blood glucose (po, 2 h) is 45%.
As to `CCCOC(CNC(C)Cc1ccc(OCC(=O)NC)cc1)c1cccc(Cl)c1` (stereo not drawn) [Example 27, N-[2-(4-Methylaminocarbonylmethoxyphenyl)-1-methylethyl]-2-^n propoxy-2-(3-chlorophenyl)ethanamine dihydrochloride hemihydrate], the figures for the response vs control in vivo at 25.1 mg/kg in assay [1] (setting [5]) and in assay [1] (setting [9]) were 115% and 143%, respectively. Also, the inhibition in vivo at 2.5 µmol/kg in the assay with blood glucose (setting [6]) stood at 52%.
Regarding `CNC(=O)COc1ccc(CC(C)NCC(OC(C)C)c2cccc(Cl)c2)cc1` (stereo not drawn) [Example 28, N-[2-(4-Methylaminocarbonylmethoxyphenyl)-1-methylethyl]-2-isopropoxy-2-(3-chlorophenyl)ethanamine dihydrochloride hemihydrate], the response vs control in vivo at 25.1 mg/kg in assay [1] (setting [9]) was 132%; in assay [1] (25.1 mg/kg po, 0-21 h, read-out: Mean Energy Expenditure (0-21 h)), 113%. Besides, in the assay on blood glucose (setting [6]), the inhibition in vivo at 2.5 µmol/kg worked out at 55%.
For `CNC(=O)c1ccc(CC(C)NCC(OC)c2cccc(Cl)c2)cc1` (stereo not drawn) [Example 30, N-[2-(4-N'-Methylcarboxamidophenyl)-1-methylethyl]-2-methoxy-2-(3-chlorophenyl)ethanamine hydrochloride], the response vs control in vivo at 19.9 mg/kg in assay [1] (setting [5]) was 115%; in assay [1] (19.9 mg/kg po, 0-3 h, read-out: Mean Energy Expenditure (0-3 h)), 119%. For the same compound, the inhibition in vivo at 12.5 µmol/kg in the assay with blood glucose (setting [7]) worked out at 26.5%.
Take `COC(CNC(C)Cc1ccc(CO)cc1)c1cccc(Cl)c1` (stereo not drawn) [Example 31, N-[2-(4-Hydroxymethylphenyl)-1-methylethyl]-2-methoxy-2-(3-chlorophenyl)ethanamine hydrochloride]: the values for the response vs control in vivo at 18.5 mg/kg in assay [1] (setting [8]) and in assay [1] (setting [5]) were 103% and 126%, respectively. Also, the inhibition in vivo at 12.5 µmol/kg with blood glucose (po, 2 h) was 29%.
For the compound `CCOC(CNC(C)Cc1ccc(C(=O)OC)cc1)c1cccc(Cl)c1` (stereo not drawn) [Example 33, N-[2-(4-Carbomethoxyphenyl)-1-methylethyl]-2-ethoxy-2-(3-chlorophenyl)ethanamine hydrochloride hemihydrate], the response vs control in vivo at 21.1 mg/kg in assay [1] (setting [5]) amounted to 122%; in assay [1] (21.1 mg/kg po, 0-3 h, read-out: Mean Energy Expenditure (0-3 h)), 148%. Also, in the assay on blood glucose (setting [4]), the inhibition in vivo at 25 µmol/kg was 52%.
In the case of `CCOC(CNC(C)Cc1ccc(C(=O)NC)cc1)c1cccc(Cl)c1` (stereo not drawn) [Example 34, N-[2-(4-N'-Methylcarboxamidophenyl)-1-methylethyl]-2-ethoxy-2-(3-chlorophenyl)ethanamine hydrochloride], the response vs control in vivo at 20.6 mg/kg was 116% in assay [1] (setting [5]) and 148% in assay [1] (20.6 mg/kg po, 0-3 h, read-out: Mean Energy Expenditure (0-3 h)). Besides, in the assay on blood glucose (setting [4]), the inhibition in vivo at 25 µmol/kg is 34%.
For the compound `CNCc1ccc(CC(C)NCC(OC)c2cccc(Cl)c2)cc1` (stereo not drawn) [Example 35, N-[2-(4-N'-Methylaminomethylphenyl)-1-methylethyl]-2-methoxy-2-(3-chlorophenyl)ethanamine dihydrochloride], the response vs control in vivo at 21 mg/kg in assay [1] (setting [2]) came out at 124%; in assay [1] (setting [3]), 123%. The inhibition in vivo at 12.5 µmol/kg in the assay on blood glucose (setting [7]) was 10%.
As to `COC(=O)COc1ccc(CC(C)NCC(OC)c2cc3ccccc3o2)cc1` (stereo not drawn) [Example 36, N-[2-(4-Carbomethoxymethoxyphenyl)-1-methylethyl]-2-methoxy-2-(2-benzofuranyl)ethanamine hydrochloride], the values for the response vs control in vivo at 21.6 mg/kg in assay [1] (setting [8]) and in assay [1] (setting [5]) were 131% and 104%, respectively. Moreover, in the assay on blood glucose (po, 2 h), the inhibition in vivo at 2.5 µmol/kg was determined as 30%.
Regarding `CNC(=O)COc1ccc(CC(C)NCC(OC)c2cc3ccccc3o2)cc1` (stereo not drawn) [Example 37, N-[2-(4-Methylaminocarbonylmethoxyphenyl)-1-methylethyl]-2-methoxy-2-(2-benzofuranyl)ethanamine dihydrochloride], the response vs control in vivo at 23.6 mg/kg is 134% in assay [1] (setting [8]) and 106% in assay [1] (setting [5]). Further, the inhibition in vivo at 1 µmol/kg in the assay with blood glucose (po, 2 h) turned out to be 26%.
Take `COc1cccc(CC(C)NCC(OC)c2cccc(Cl)c2)c1` (stereo not drawn) [Example 39, N-[2-(3-Methoxyphenyl)-1-methylethyl]-2-methoxy-2-(3-chlorophenyl)ethanamine hydrochloride]: the response vs control in vivo at 18.5 mg/kg in assay [1] (setting [8]) was determined as 130%; in assay [1] (setting [5]), 103%. Also, in the assay on blood glucose (po, 2 h), the inhibition in vivo at 25 µmol/kg was 15%.
For `COC(CNC(C)Cc1ccc(SC(C)C)cc1)c1cccc(Cl)c1` (stereo not drawn) [Example 40, N-[2-(4-Isopropylthiophenyl)-1-methylethyl]-2-methoxy-2-(3-chlorophenyl)ethanamine hydrochloride], the figures for the response vs control in vivo at 20.7 mg/kg in assay [1] (setting [8]) and in assay [1] (setting [5]) were 128% and 111%, respectively. Also, the inhibition in vivo at 12.5 µmol/kg in the assay with blood glucose (po, 2 h) is 31%.
For `COC(CNC(C)Cc1ccc(N(C)C)cc1)c1cccc(Cl)c1` (stereo not drawn) [Example 41, N-[2-(4-Dimethylaminophenyl)-1-methylethyl]-2-methoxy-2-(3-chlorophenyl)ethanamine dihydrochloride hemihydrate], the response vs control in vivo at 21.4 mg/kg came out at 107% in assay [1] (setting [8]) and 116% in assay [1] (setting [5]). Besides, in the assay with blood glucose (po, 2 h), the inhibition in vivo at 12.5 µmol/kg was 45%.
For `CCCCOC(CNC(C)Cc1ccc(OCC(=O)OC)cc1)c1cccc(Cl)c1` (stereo not drawn) [Example 42, N-[2-(4-Carbomethoxymethoxyphenyl)-1-methylethyl]-2-^n butoxy-2-(3-chlorophenyl)ethanamine hydrochloride], the response vs control in vivo at 23.5 mg/kg in assay [1] (setting [5]) is 114%; in assay [1] (23.5 mg/kg po, 0-3 h, read-out: Mean Energy Expenditure (0-3 h)), 158%. The inhibition in vivo at 5 µmol/kg in the assay on blood glucose (5 μmol/Kg oral, 2 h after glucose 1 g/Kg s.c., vs control) amounted to 37%.

The values are drawn from US4629737A, “Secondary amines and use in pharmaceutical compositions” (Beecham Group p.l.c., priority 1982, dated 1986).
